Experimental data reported in patent US20210113692A1, “DOSING REGIMEN” (IMCLONE, LLC, priority 2016, published 2021).
Values joined by “and” are separate entries in the source; they are usually repeats but may differ in a detail not shown here. Equal entries are not always repeated. “Also recorded” adds a separate entry of the source. Where two headings read alike, the source gives them in different places.

What was measured:
[1] = Population PK (PopPK) model using PK data from 4 Phase 2 studies; type: in vivo, human; conditions: irrespective of indication
Description: • Population Pharmacokinetics Analysis of the Four Phase 2 Clinical Studies: A population PK (PopPK) model was developed using PK data from 4 Phase 2 studies (www.clinicaltrials.gov study numbers NCT00918203 (A Randomized Phase 2 Study of Human Anti-PDGFRα. Monoclonal Antibody (IMC-3G3) With Paclitaxel/Carboplatin or Paclitaxel/Carboplatin Alone in Previously Untreated Patients With Locally Advanced or Metastatic Non-Small Cell Lung Cancer), NCT01185964 (A Phase 1b/2 Randomized Phase 2 Study Evaluating the Efficacy of Doxorubicin With or Without a Human Anti-PDGFRα Monoclonal Antibody (IMC-3G3) in the Treatment of Advanced Soft Tissue Sarcoma), NCT00895180 (An Open Label, Phase 2 Study Evaluating the Safety and Efficacy of IMC-3G3 or MC-1121B in Patients With Recurrent Glioblastoma Multiforme), and NCT01316263 (A Phase 2 Study of a Human Anti-PDGFRα Monoclonal Antibody (IMC-3G3) in Previously Treated Patients With Unresectable and/or Metastatic Gastrointestinal Stromal Tumors (GIST)). […] A Randomized, Double Blind, Placebo-Controlled, Phase 3 Trial of Doxorubicin Plus Olaratumab Versus Doxorubicin Plus Placebo in Patients With Advanced Soft Tissue Sarcoma (the “Phase 3 Study”) The present invention is being further tested in the Phase 3 Study (trial number NCT02451943 available on clinicaltrials.gov https://clinicaltrials.gov/ct2/show/NCT02451943?term=ANNOUNCE&rank=1).

[2] = test system: patients with advanced STS; assay: Time-to-event (survival) model of the effect of olaratumab serum levels on PFS/OS hazard; type: in vivo, human; conditions: Cmin1-based and Cavg-based models
Description: Further, FIG. 1, illustrates the predicted effect of olaratumab on HR for PFS. In FIG. 1. PFS as predicted by Cmin1-based model is shown in the left panel and the Cavg-based model is shown in the right panel. The solid red lines describe the change in HR as a function of Cmin1 and Cavg; the grey histograms describe the distribution of olaratumab Cmin1 and Cavg in the Study experimental arm together with their quartiles (dashed blue lines) the green dashed lines indicate ECmin150 and ECavg50.

[3] = test system: patients with advanced STS; assay: Randomized Phase 2 Study of doxorubicin with or without olaratumab (NCT01185964): PFS, OS, ORR; type: in vivo, human; conditions: for median OS / median PFS: Phase 2 Study
Description: The Study is an open-label, multicenter, Phase 2 trial in which patients with advanced STS not amenable to treatment with surgery or radiotherapy are treated with olaratumab in combination with doxorubicin or doxorubicin alone.
Enrolled patients who meet all eligibility criteria are randomized 1:1 to one of two treatment arms. Arm A or Arm B. Arm A patients receive olaratumab in combination with doxorubicin (hereinafter the “Combination Arm”) and Ann B patients receive doxorubicin alone (hereinafter the “Doxonthicin Arm”), Randomization of this Study is performed according to a dynamic randomization algorithm using 4 pre-defined risk factors: PDGFRα expression (positive vs. negative), number of previous lines of treatment (0 vs. 1+ lines), histological tumor type (i.e., leiomyosarcoma vs. synovial sarcoma vs. other tumor type), and ECOG performance status (0-1 vs. 2). This dynamic randomization procedure is used to minimize imbalance between treatment groups. To determine tumor type and PDGFRCL expression in patients, a tumor sample from either a biopsy or previously archived tumor tissue sample is sufficient. Biopsy is required to be performed within 21 days prior to randomization; archived tissue sample must also be available within this timeframe.
Combination Arm: 66 patients randomized in the Combination Ann receive 15 mg/kg of olaratumab on Days 1 and 8 of each 21-day treatment cycle, in combination with 75 mg/m^2 doxorubicin administered on Day 1 of each cycle. (Note: if premedication is required prior to the first doxorubicin infusion, this is to be done after the completion of olaratumab infusion, not before the olaratumab infusion. This premedication may be administered within the hour that follows completion of the olaratumab infusion.) The actual (not planned) administration of each doxorubicin infusion defines Day 1 of each 21-day treatment cycle. The combination treatment just described is to continue for up to 8 cycles at the investigator's discretion. During Cycles 5 through 8, patients being treated with doxorubicin may also be administered 750 mg/m^2 dexrazoxane on Day 1 of each cycle, (at the investigator's discretion) prior to doxorubicin on Day 1 of each 21-day cycle. If the dose of doxorubicin is reduced at any point in the Study, the dose of dexrazoxane is to be reduced accordingly, maintaining a dosage ratio of 10:1. For example, if doxorubicin is reduced to 60 mg/m^2, then dexrazoxane is to be reduced to 600 mg/m^2. Doxorubicin may be administered within the hour that follows completion of the olaratumab infusion. In the absence of PD or other withdrawal criteria, patients in the Combination Arm who have completed eight cycles of therapy are to receive subsequent olaratumab monotherapy, administered on Days 1 and 8 of each 21-day cycle. Furthermore, if doxorubicin is discontinued (e.g., for reasons of toxicity) prior to end of cycle 8 and in the absence of withdrawal criteria, patients may continue to receive olaratumab monotherapy. For patients who discontinue olaratumab during the first 8 cycles of treatment, doxorubicin may be continued (for up to 8 cycles), provided no withdrawal criteria are met.
Doxorubicin Arm: 67 patients randomized in the Doxorubicin Arm receive 75 mg/m^2 doxorubicin on Day 1 of each cycle, for up to 8 cycles at the investigator's discretion. The actual (not planned) administration of each doxorubicin infusion defines Day 1 of each 21-day treatment cycle. During cycles 5 through 8, 750 mg/m^2 dexrazoxane may also be administered on Day 1 of each cycle, (at the investigator's discretion) prior to doxorubicin on Day 1 of each 21-day cycle. If the dose of doxorubicin is reduced at any point in the Study, the dose of dexrazoxane is to be reduced accordingly, maintaining a dosage ratio of 10:1. For example, if doxorubicin is reduced to 60 mg/m^2, then dexrazoxane is to be reduced to 600 mg/m^2. […]

[4] = design: species or system human; conditions: in vivo
Description: The rate of treatment-emergent adverse events (TEAEs) is compared across quartiles of olaratumab exposure.

[5] = test system: patients with advanced STS; assay: Matched case-control exposure-response analysis of OS and PFS across quartiles of olaratumab serum levels; type: in vivo, human
Description: (§1) Pharmacokinetics and Exposure-response Analysis of The “Study”: The PFS, OS, PK and safety data from patients who received olaratumab in the Study, as discussed above, were analyzed.
(§2) The effect of olaratumab serum levels is explored using average serum concentration (Cavg) and trough serum concentration after cycle 1 (Cmin1). The PFS and OS data are analyzed using a matched case-control (MCC) analysis across quartiles of olaratumab serum levels and a time-to-event (survival) model with a constant baseline hazard and a Hill function to describe the effect of olaratumab. The rate of treatment-emergent adverse events (TEAEs) is compared across quartiles of olaratumab exposure.

[6] = Olaratumab serum concentrations (pharmacokinetics) in the Study
Description: Serum levels can be measured by an enzyme-linked immunosorbent assay; a test that uses antibodies and color change to identify and quantify a substance.
as §1, §2

[7] = Cavg Q1 (56 < 134.4) μg/mL, 15 patients per group
[8] = Cavg Q3 (≥175.2-<249.9) μg/mL, 15 patients per group
[9] = Cavg Q4 (≥249.9-347.3) μg/mL, 16 patients per group
[10] = Cmin1 Q1 (12.3-<62.8) μg/mL, 15 patients per group
[11] = Cmin1 Q2 (≥62.8-<86.9) μg/mL, 16 patients per group
[12] = Cmin1 Q4 (≥105.6-188.1) μg/mL, 16 patients per group

olaratumab
cycle in which steady-state olaratumab serum levels are achieved (PopPK model) [1]: ≥ 3 Cycle | predicted effect of olaratumab on HR for PFS (FIG. 1) [2]: not predicted to change until the Cmin1 or Cavg reaches values corresponding to the 25th percentile of their distribution in the study | stratified HR for overall survival ([3]; Combination Arm vs Doxorubicin Arm, final analysis): 0.46 | median OS ([3]; final analysis): 26.5 months | median PFS ([3]; final analysis): 6.6 months | stratified HR for progression-free survival ([3]; olaratumab plus doxorubicin vs doxorubicin, final analysis): 0.672 | Mucositis Grade <=2 (consolidated TEAE), number of patients [4]: 32 | Mucositis Grade <=2, % (consolidated TEAE) [4]: (51.6) % | Mucositis Grade >2 (consolidated TEAE), number of patients [4]: 2 | Mucositis Grade >2, % (consolidated TEAE) [4]: (3.2) % | Mucositis Grade >=4 (consolidated TEAE), number of patients [4]: 0 | Neutropenia Grade <=2 (consolidated TEAE), number of patients [4]: 3 | Neutropenia Grade <=2, % (consolidated TEAE) [4]: (4.8) % | Neutropenia Grade >2 (consolidated TEAE), number of patients [4]: 35 | Neutropenia Grade >2, % (consolidated TEAE) [4]: (56.5) % | Neutropenia Grade >=4 (consolidated TEAE), number of patients [4]: 23 | Neutropenia Grade >=4, % (consolidated TEAE) [4]: (37.1) % | TEAE Overall Grade <=2, % [4]: (19.4) % | TEAE Overall Grade <=2, number of patients [4]: 12 | TEAE Overall Grade >2, % [4]: (79.0) % | TEAE Overall Grade >2, number of patients [4]: 49 | TEAE Overall Grade >=4, % [4]: (40.3) % | TEAE Overall Grade >=4, number of patients [4]: 25 | OS improvement in the lowest exposure quartile ([5]; Cmin1<63 μg/mL, N=15): no improvement in OS; also recorded: did not show OS improvement; also recorded: did not have OS | PFS and OS improvement in the upper quartiles of olaratumab serum exposure ([5]; regardless of Cmin at end of cycle 1 or average serum concentration): greater improvement in progression-free survival and overall survival | mean maximum serum concentration (Cmax) after the first dose ([6]; 15 mg/kg, cycle 1): 284 µg/mL | mean maximum serum concentration (Cmax) after the second dose ([6]; 15 mg/kg, cycle 1): 293 µg/mL | Cavg range ([6]; Overall, n = 62, average over entire treatment): 56.0 to 347.3 µg/mL | Cmin1 range ([6]; Overall, n = 62, trough at the end of Cycle 1): 12.3 to 188.1 µg/mL | mean trough serum concentration (Cmin) at the end of the cycle ([6]; cycle 1): 66.5 µg/mL | individual apparent terminal elimination half-life ([6]; during cycle 3): 6.67 days and 14.4 days | cycle in which steady state is reached ([6]; in vivo): 3 cycle

COc1cccc2c1C(=O)c1c(O)c3c(c(O)c1C2=O)C[C@@](O)(C(=O)CO)C[C@@H]3O[C@H]1C[C@H](N)[C@H](O)[C@H](C)O1 [doxorubicin]
median OS ([3]; final analysis): 14.7 months | median PFS ([3]; final analysis): 4.1 months | median progression-free survival, blinded independent retrospective review ([3]; in vivo): 4.4 months | objective response rate, independent assessment ([3]; in vivo): 7.5% | objective response rate ([3]; investigator assessment, RECIST 1.1): 11.9% | Mucositis Grade <=2 (consolidated TEAE), number of patients ([4]; human): 20 | Mucositis Grade <=2, % (consolidated TEAE) ([4]; human): (30.8) % | Mucositis Grade >2 (consolidated TEAE), number of patients ([4]; human): 3 | Mucositis Grade >2, % (consolidated TEAE) ([4]; human): (4.6) % | Mucositis Grade >=4 (consolidated TEAE), number of patients ([4]; human): 0 | Neutropenia Grade <=2 (consolidated TEAE), number of patients ([4]; human): 3 | Neutropenia Grade <=2, % (consolidated TEAE) ([4]; human): (4.6) % | Neutropenia Grade >2 (consolidated TEAE), number of patients ([4]; human): 22 | Neutropenia Grade >2, % (consolidated TEAE) ([4]; human): (33.8) % | Neutropenia Grade >=4 (consolidated TEAE), number of patients ([4]; human): 17 | Neutropenia Grade >=4, % (consolidated TEAE) ([4]; human): (26.2) % | TEAE Overall Grade <=2, % ([4]; human): (29.2) % | TEAE Overall Grade <=2, number of patients ([4]; human): 19 | TEAE Overall Grade >2, % ([4]; human): (69.2) % | TEAE Overall Grade >2, number of patients ([4]; human): 45 | TEAE Overall Grade >=4, % ([4]; human): (30.8) % | TEAE Overall Grade >=4, number of patients ([4]; human): 20 | Number of events, overall survival [5, 7]: 15/13 | Number of events, progression-free survival [5, 7]: 15/14 | Number of events, progression-free survival ([5]; Cavg Q2 (≥134.4-<175,2) μg/mL, 16 patients per group): 16/10 | Number of events, overall survival ([5]; Cavg Q2 (≥134.4-<175.2) μg/mL, 16 patients per group): 16/14 | Number of events, overall survival [5, 8]: 15/7 | Number of events, progression-free survival [5, 8]: 15/8 | Number of events, overall survival [5, 9]: 16/11 | Number of events, progression-free survival [5, 9]: 16/12 | Number of events, overall survival [5, 10]: 15/12 | Number of events, progression-free survival [5, 10]: 15/11 | Number of events, overall survival [5, 11]: 16/13 | Number of events, progression-free survival [5, 11]: 16/9 | Number of events, overall survival ([5]; Cmin1 Q3 (≥86.9-<105.6) μg/mL, 15 patients per group): 15/8 | Number of events, progression-free survival ([5]; Cmin1 Q3 (≥86.9=<105.6) μg/mL, 15 patients per group): 15/10 | Number of events, overall survival [5, 12]: 16/10 | Number of events, progression-free survival [5, 12]: 16/11
